Data reported in patent EP0785936B1, “PHOTOCHROMIC NAPHTHOXAZINE COMPOUNDS” (PPG Industries Ohio, Inc., priority 1994, dated 1996).

Assay: Photochromic response of imbibed diethylene glycol bis(allyl carbonate) polymer test squares on an optical bench
Type: physicochemical
Details: for Δ OD @ SATURATION: UV exposure continued for 20 minutes; for BLEACH RATE T 1/2: time for absorbance of activated form to reach one half the highest absorbance at 25.7 ± 0.5 °C after removal of activating light
Method: Comparative testing was conducted on the principle product of Example 3 and certain photochromic compounds described in U.S. Patents 4,342,668 and 4,637,698. These compounds were imbibed by thermal transfer into test squares of a polymeric matrix prepared from a diethylene glycol bis(allyl carbonate) composition by the following procedure: Each photochromic compound was dissolved in toluene to form a 4 weight percent solution of the compound. A piece of No. 4 Whatman filter paper was saturated with the toluene solution of the photochromic compound and allowed to air dry. The dried filter paper was placed on one side of the polymer test square, which measured 1/8 inch (0.3 centimeter) x 2 inch (5.1 centimeters) x 2 inch (5.1 centimeters). A piece of untreated filter paper was placed on the other side of the polymer test square and the resulting sandwich placed between two plates of flat aluminum metal plates. The entire assembly was then placed in a 155°C. oven for a time sufficient to thermally transfer the photochromic compound into the polymer test square. […] The imbibed test squares were washed with acetone after removal from the oven.
The imbibed polymer test squares were tested for photochromic response rates on an optical bench. The samples were illuminated by a 150 watt Xenon lamp fitted with a copper sulfate bath and a neutral density filter at an intensity of about one sun. A second beam of light provided by a filtered tungsten lamp arranged to pass through the sample area exposed by the UV source was used to monitor changes in transmission of the sample over different wavelength ranges in the visible region of the spectrum. The intensity of the monitoring beam after passing through the sample was measured by means of an IL-1500 radiometer equipped with a silicon detector head and matching filters.
The Δ OD/min., which represents the sensitivity of the photochromic compound's response to UV light, was measured using photopic filters on the silicon detector. The response of the filtered detector approximated the luminosity curve. The Δ OD was measured over the first five (5) seconds of UV exposure, then expressed on a per minute basis. The saturation optical density (OD) was taken under identical conditions as the Δ OD/min., except UV exposure was continued for 20 minutes. The lambda max reported in Table 2 is the wavelength in the ultraviolet range closest to the visible spectrum or in the threshold range, i.e., 390 to 410 nanometers, of the visible spectrum at which the maximum absorption and activation of the photochromic compound occurs in the polymer matrix test squares.
The bleach rate T 1/2(sec.) is the time interval in seconds for the absorbance of the activated form of the photochromic compounds in the test polymer to reach one half the highest absorbance at 25.7 ± 0.5 °C. after removal of the source of activating light.

Compound	Δ OD @ SATURATION	BLEACH RATE T 1/2
1-propyl-3,3,4,5(or 3,3,5,6)-tetramethyl-9'-methoxycarbonyl-8'-acetoxy-spiro[indoline-2,3'-[3H]naphth[2,1-b]-[1,4]oxazine]	0.42	2.27 min
1-propyl-3,3,4,5(or 3,3,5,6)-tetramethyl-spiro[indoline-2,3'-[3H]naphth[2,1-b][1,4]oxazine]	0.11	0.783 min
CCCN1c2cc(C)c(C)cc2C(C)(C)C12C=Nc1c(ccc3ccc(OC)cc13)O2 (centres unmarked) [A, 1-propyl-3,3,5,6-tetramethyl-9'-methoxy-spiro[indoline-2,3'-[3H]naphth[2,1-b][1,4]oxazine]]	0.11	1.17 min
CCCN1c2cc(C)c(C)cc2C(C)(C)C12C=Nc1c(ccc3ncccc13)O2 (centres unmarked) [B, 1-propyl-3,3,5,6-tetramethyl-spiro[indoline-2,3'-[3H]pyrido-[3,2-f][1,4]benzoxazine]]	0.36	1.15 min
